Test results published in PubChem BioAssay (NCI).
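Dose response: 5 concentrations. Exposure: 48 h. Format: 96-well plates. Endpoint: linear interpolation; highest concentration if not reached. GI50 marks 50% less growth. TGI: concentration producing complete growth inhibition.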

How the values were obtained:
Test in all cases: inhibition of tumour cell growth, NCI panel, 48 h
NCI-H522 lung = test system: NCI-H522 lung
SF-295 CNS = test system: SF-295 CNS
MDA-MB-435 = test system: MDA-MB-435
A498 renal = test system: A498 renal
BT-549 breast = test system: BT-549 breast
SNB-19 CNS = test system: SNB-19 CNS
NCI-H460 lung = test system: NCI-H460 lung
NCI/ADR-RES ovarian = test system: NCI/ADR-RES ovarian
OVCAR-8 ovarian = test system: OVCAR-8 ovarian
U251 CNS = test system: U251 CNS
NCI-H23 lung = test system: NCI-H23 lung
HCT-116 colon = test system: HCT-116 colon
SF-268 CNS = test system: SF-268 CNS
MALME-3M melanoma = test system: MALME-3M melanoma
HT29 colon = test system: HT29 colon
SK-MEL-5 melanoma = test system: SK-MEL-5 melanoma
COLO 205 colon = test system: COLO 205 colon
SF-539 CNS = test system: SF-539 CNS
HL-60(TB) leukemia = test system: HL-60(TB) leukemia
HOP-92 NSCLC = test system: HOP-92 NSCLC
EKVX NSCLC = test system: EKVX NSCLC
A549 NSCLC = test system: A549 NSCLC
RXF 393 renal = test system: RXF 393 renal
CAKI-1 renal = test system: CAKI-1 renal
PC-3 prostate = test system: PC-3 prostate
SN12C renal = test system: SN12C renal
LOX IMVI melanoma = test system: LOX IMVI melanoma
HCC-2998 colon = test system: HCC-2998 colon
786-0 renal = test system: 786-0 renal
SNB-75 CNS = test system: SNB-75 CNS
IGROV1 ovarian = test system: IGROV1 ovarian
T-47D breast = test system: T-47D breast
HOP-62 NSCLC = test system: HOP-62 NSCLC
M14 melanoma = test system: M14 melanoma
MOLT-4 leukemia = test system: MOLT-4 leukemia
CCRF-CEM leukemia = test system: CCRF-CEM leukemia
DU-145 prostate = test system: DU-145 prostate
HCT-15 colon = test system: HCT-15 colon
UACC-62 melanoma = test system: UACC-62 melanoma
KM12 colon = test system: KM12 colon
HS 578T breast = test system: HS 578T breast
K-562 leukemia = test system: K-562 leukemia
OVCAR-5 ovarian = test system: OVCAR-5 ovarian
OVCAR-3 ovarian = test system: OVCAR-3 ovarian
MCF7 breast = test system: MCF7 breast
OVCAR-4 ovarian = test system: OVCAR-4 ovarian
SK-MEL-28 melanoma = test system: SK-MEL-28 melanoma
UO-31 renal = test system: UO-31 renal
UACC-257 melanoma = test system: UACC-257 melanoma
MDA-MB-231 breast = test system: MDA-MB-231 breast
SK-MEL-2 melanoma = test system: SK-MEL-2 melanoma
SW-620 colon = test system: SW-620 colon
SK-OV-3 ovarian = test system: SK-OV-3 ovarian
TK-10 renal = test system: TK-10 renal
ACHN renal = test system: ACHN renal
NCI-H226 lung = test system: NCI-H226 lung
RPMI-8226 leukemia = test system: RPMI-8226 leukemia

Structure (SMILES): CC(C)(C)NC(=O)[C@H]1C[C@H]2CCCC[C@H]2CN1C[C@@H](O)[C@H](Cc1ccccc1)NC(=O)[C@H](CC(N)=O)NC(=O)c1ccc2ccccc2n1
- GI50 (NCI-H522 lung): 15.6 µM
- TGI (NCI-H522 lung): 33.8 µM
- GI50 (SF-295 CNS): 18.3 µM
- TGI (SF-295 CNS): 39.3 µM
- GI50 (MDA-MB-435): 11.9 µM
- TGI (MDA-MB-435): 32.8 µM
- GI50 (A498 renal): 15.7 µM
- TGI (A498 renal): 32.1 µM
- GI50 (BT-549 breast): 11.2 µM
- TGI (BT-549 breast): > 66.1 µM
- GI50 (SNB-19 CNS): 7.97 µM
- TGI (SNB-19 CNS): 23 µM
- GI50 (NCI-H460 lung): 12.7 µM
- TGI (NCI-H460 lung): > 51.4 µM
- GI50 (NCI/ADR-RES ovarian): 19.4 µM
- TGI (NCI/ADR-RES ovarian): 44.3 µM
- GI50 (OVCAR-8 ovarian): 23 µM
- TGI (OVCAR-8 ovarian): 62.4 µM
- GI50 (U251 CNS): 11.9 µM
- TGI (U251 CNS): 24.4 µM
- GI50 (NCI-H23 lung): 16 µM
- TGI (NCI-H23 lung): 33.2 µM
- GI50 (HCT-116 colon): 17 µM
- TGI (HCT-116 colon): > 47.1 µM
- GI50 (SF-268 CNS): 13 µM
- TGI (SF-268 CNS): 30.1 µM
- GI50 (MALME-3M melanoma): 17.7 µM
- TGI (MALME-3M melanoma): 37.8 µM
- GI50 (HT29 colon): 9.38 µM
- TGI (HT29 colon): 28.2 µM
- GI50 (SK-MEL-5 melanoma): 14.5 µM
- TGI (SK-MEL-5 melanoma): 30 µM
- GI50 (COLO 205 colon): 10.5 µM
- TGI (COLO 205 colon): 29.8 µM
- GI50 (SF-539 CNS): 2.93 µM
- TGI (SF-539 CNS): 23.9 µM
- GI50 (HL-60(TB) leukemia): 4.22 µM
- TGI (HL-60(TB) leukemia): 26.3 µM
- GI50 (HOP-92 NSCLC): 4.17 µM
- TGI (HOP-92 NSCLC): 20 µM
- GI50 (EKVX NSCLC): 3.57 µM
- TGI (EKVX NSCLC): > 59.9 µM
- GI50 (A549 NSCLC): 13.2 µM
- TGI (A549 NSCLC): 31 µM
- GI50 (RXF 393 renal): 12.5 µM
- TGI (RXF 393 renal): 32.1 µM
- GI50 (CAKI-1 renal): 16.4 µM
- TGI (CAKI-1 renal): 33.1 µM
- GI50 (PC-3 prostate): 7.17 µM
- TGI (PC-3 prostate): 26.8 µM
- GI50 (SN12C renal): 13.9 µM
- TGI (SN12C renal): 27.8 µM
- GI50 (LOX IMVI melanoma): 14.6 µM
- TGI (LOX IMVI melanoma): 32.1 µM
- GI50 (HCC-2998 colon): 13.4 µM
- TGI (HCC-2998 colon): 26.8 µM
- GI50 (786-0 renal): 13.8 µM
- TGI (786-0 renal): 31.1 µM
- GI50 (SNB-75 CNS): 12.5 µM
- TGI (SNB-75 CNS): 28.4 µM
- GI50 (IGROV1 ovarian): 15.4 µM
- TGI (IGROV1 ovarian): 38.8 µM
- GI50 (T-47D breast): 13.8 µM
- TGI (T-47D breast): 40.9 µM
- GI50 (HOP-62 NSCLC): 15.2 µM
- TGI (HOP-62 NSCLC): 30.7 µM
- GI50 (M14 melanoma): 13.3 µM
- TGI (M14 melanoma): 28 µM
- GI50 (MOLT-4 leukemia): 1.9 µM
- TGI (MOLT-4 leukemia): 21.8 µM
- GI50 (CCRF-CEM leukemia): 9.31 µM
- TGI (CCRF-CEM leukemia): 28 µM
- GI50 (DU-145 prostate): 1.78 µM
- TGI (DU-145 prostate): 6.95 µM
- GI50 (HCT-15 colon): 14 µM
- TGI (HCT-15 colon): 33.8 µM
- GI50 (UACC-62 melanoma): 13.6 µM
- TGI (UACC-62 melanoma): 27.7 µM
- GI50 (KM12 colon): 14 µM
- TGI (KM12 colon): 34.8 µM
- GI50 (HS 578T breast): 16.4 µM
- TGI (HS 578T breast): 60.2 µM
- GI50 (K-562 leukemia): 8.51 µM
- TGI (K-562 leukemia): 24.4 µM
- GI50 (OVCAR-5 ovarian): 16.7 µM
- TGI (OVCAR-5 ovarian): 30.5 µM
- GI50 (OVCAR-3 ovarian): 13.5 µM
- TGI (OVCAR-3 ovarian): 33.5 µM
- GI50 (MCF7 breast): 19.1 µM
- TGI (MCF7 breast): 43.5 µM
- GI50 (OVCAR-4 ovarian): 14 µM
- TGI (OVCAR-4 ovarian): 31.5 µM
- GI50 (SK-MEL-28 melanoma): 16.9 µM
- TGI (SK-MEL-28 melanoma): 33.1 µM
- GI50 (UO-31 renal): 15.5 µM
- TGI (UO-31 renal): 29.9 µM
- GI50 (UACC-257 melanoma): 13.4 µM
- TGI (UACC-257 melanoma): 28.2 µM
- GI50 (MDA-MB-231 breast): 13 µM
- TGI (MDA-MB-231 breast): 26.7 µM
- GI50 (SK-MEL-2 melanoma): 22.7 µM
- TGI (SK-MEL-2 melanoma): > 65.7 µM
- GI50 (SW-620 colon): 20.3 µM
- TGI (SW-620 colon): 48.8 µM
- GI50 (SK-OV-3 ovarian): 18.9 µM
- TGI (SK-OV-3 ovarian): 42.9 µM
- GI50 (TK-10 renal): 15.4 µM
- TGI (TK-10 renal): 36.6 µM
- GI50 (ACHN renal): 16 µM
- TGI (ACHN renal): 29.5 µM
- GI50 (NCI-H226 lung): 15.4 µM
- TGI (NCI-H226 lung): 32.8 µM
- GI50 (RPMI-8226 leukemia): 3.5 µM
- TGI (RPMI-8226 leukemia): 14.8 µM

Structure (SMILES): Cc1c2c(OCCCCN3CCN(c4ncccn4)CC3)nn(C)c(=O)c2c(C)n1-c1ccccc1
- TGI (NCI-H522 lung): 38.2 µM
- TGI (SF-295 CNS): 32.4 µM
- TGI (MDA-MB-435): 40.5 µM
- TGI (A498 renal): 30.6 µM
- TGI (BT-549 breast): 34.5 µM
- TGI (SNB-19 CNS): 33.3 µM
- TGI (NCI-H460 lung): 35.6 µM
- TGI (NCI/ADR-RES ovarian): 46.2 µM
- TGI (OVCAR-8 ovarian): 61.3 µM
- TGI (U251 CNS): 32 µM
- TGI (NCI-H23 lung): 37 µM
- TGI (HCT-116 colon): 31.7 µM
- TGI (SF-268 CNS): 34.3 µM
- TGI (MALME-3M melanoma): 35.7 µM
- TGI (HT29 colon): > 100 µM
- TGI (SK-MEL-5 melanoma): 26.8 µM
- TGI (COLO 205 colon): 34.8 µM
- TGI (SF-539 CNS): 32.6 µM
- TGI (HL-60(TB) leukemia): 47.2 µM
- TGI (HOP-92 NSCLC): 31.8 µM
- TGI (EKVX NSCLC): 36.6 µM
- TGI (A549 NSCLC): 40.9 µM
- TGI (RXF 393 renal): 41.8 µM
- TGI (CAKI-1 renal): 35.3 µM
- TGI (PC-3 prostate): 37.3 µM
- TGI (SN12C renal): 34.5 µM
- TGI (LOX IMVI melanoma): 44.5 µM
- TGI (HCC-2998 colon): 35 µM
- TGI (786-0 renal): 34.7 µM
- TGI (SNB-75 CNS): 39.4 µM
- TGI (IGROV1 ovarian): 35 µM
- TGI (T-47D breast): 45.8 µM
- TGI (HOP-62 NSCLC): 57.8 µM
- TGI (M14 melanoma): 35.9 µM
- TGI (MOLT-4 leukemia): 84.6 µM
- TGI (CCRF-CEM leukemia): > 100 µM
- TGI (DU-145 prostate): 35.8 µM
- TGI (HCT-15 colon): 32.7 µM
- TGI (UACC-62 melanoma): 31 µM
- TGI (KM12 colon): 43.1 µM
- TGI (HS 578T breast): 67.8 µM
- TGI (K-562 leukemia): > 100 µM
- TGI (OVCAR-5 ovarian): 37.6 µM
- TGI (OVCAR-3 ovarian): 41.9 µM
- TGI (MCF7 breast): 31.4 µM
- TGI (OVCAR-4 ovarian): 39.1 µM
- TGI (SK-MEL-28 melanoma): 34.5 µM
- TGI (UO-31 renal): 30.8 µM
- TGI (UACC-257 melanoma): 33.5 µM
- TGI (MDA-MB-231 breast): 30.7 µM
- TGI (SK-MEL-2 melanoma): 34.6 µM
- TGI (SW-620 colon): 69.4 µM
- TGI (SK-OV-3 ovarian): 35.4 µM
- TGI (TK-10 renal): 33.5 µM
- TGI (ACHN renal): 31.3 µM
- TGI (NCI-H226 lung): 40.8 µM
- TGI (RPMI-8226 leukemia): 74.4 µM
